Laboratory results taken from article PMC10960472 (Veterinary Research, 2024).
In brackets after ≈: the same amount, converted by molar mass. Like-named read-outs stand apart in the source and are kept apart here. No end group written: not given here.

What was measured:
[1] = test system: E. coli RS218; experiment: microbe, parasite or virus in culture; conditions: Escherichia coli; for MBC: RS218, read-out: MBC, E. coli RS218, colony counting on LB agar from wells without visible growth; for MIC: RS218, read-out: MIC, E. coli RS218, MHB microdilution, 16-20 h at 37 °C, triplicate, lowest concentration inhibiting visual growth
[2] = test system: E. coli PCN033
[3] = test system: E. coli RS218
[4] = test system: PCN033 and RS218; experiment: MIC and MBC, summary over both strains; format: cell-based; conditions: Escherichia coli; for MBC: read-out: MBCs against PCN033 and RS218; for MIC: read-out: MICs against PCN033 and RS218
[5] = test system: E. coli PCN033; experiment: microbe, parasite or virus in culture; conditions: Escherichia coli; for MBC: PCN033, read-out: MBC, E. coli PCN033, colony counting on LB agar from wells without visible growth; for MIC: PCN033, read-out: MIC, E. coli PCN033, MHB microdilution, 16-20 h at 37 °C, triplicate, lowest concentration inhibiting visual growth
[6] = test system: PCN033; experiment: Time-kill curve assay; format: cell-based, Escherichia coli; conditions: sub-MBC: PMAP-36 1/4 MBC, tetracycline 1/16 MBC, gentamicin 1/8 MBC, 37 °C
[7] = test system: monocytes and macrophages in the PLF; experiment: Flow cytometry of immune cells in peritoneal lavage fluid of infected mice; format: in vivo, mouse; conditions: 12 h post-infection, flow cytometry F4/80 and Gr-1, n = 3/group
Description: Mice were infected and treated with the test compounds as described above. After 12 h of infection, PLF was collected with 2 mL of sterile PBS, and the cells were centrifuged at 1800 rpm for 3 min. Then, the cells were blocked with 1 mL of 2% bovine serum albumin (BSA) in PBS for 30 min. An anti-mouse CD16/32 antibody (1:50) (BioLegend, CA, USA) was used to block nonspecific antibody binding in 0.5% BSA buffer for 30 min at 4 °C. Next, the cells were stained with PE-conjugated anti-mouse F4/80 antibody (1:50) (BioLegend, CA, USA) and FITC-conjugated anti-mouse Ly-6G/Ly-6C (Gr-1) antibody (1:200) (BioLegend, CA, USA) in 0.5% BSA for 30 min at 4 °C. Afterwards, the cells were washed twice with 150 μL of 2% BSA and analysed using flow cytometry.

[8] = test system: E. coli PCN033; experiment: Checkerboard assay, fractional bactericidal concentration index; format: cell-based, Escherichia coli; conditions: PMAP-36 with tetracycline, against multidrug-resistant porcine ExPEC
[9] = test system: PCN033; experiment: Scanning electron microscopy of treated bacteria; format: cell-based, Escherichia coli; conditions: tetracycline 1/16 MBC, PMAP-36 1/4 MBC, alone or combined, MHB 37 °C
[10] = test system: PCN033; experiment: Mouse model of systemic infection with PCN033; format: in vivo; conditions: C57BL/6 mice, 1 × 10^7 CFU PCN033 i.p., 30 mg/kg tetracycline i.p. 2 h after infection, n = 10/group
Description: Female C57BL/6 mice (6–8 weeks old) were obtained from Chongqing Lepitt Biotechnology Co., Ltd. This study was approved by the Institutional Animal Care and Use Committee (IACUC) of Southwest University, Chongqing, China (IACUC-20221022-18). […] Afterwards, different assays were performed as described below.
For the generation of survival curves, mice (n = 10/group) were monitored every 6 h until 72 h post-infection. Statistical analysis was conducted by the log rank (Mantel‒Cox) test in GraphPad Prism 8.0 software.
Mice (n = 5/group) were euthanized at 12 h post-infection. Then, organs (spleen, liver, and lung), blood and peritoneal lavage fluid (PLF) were collected and homogenized to determine the bacterial load via serial tenfold dilutions, plating on LB agar plates, and incubation at 37 °C overnight.
For histopathological observation, mice (n = 3/group) were euthanized at 12 h post-infection. Then, the lung tissues were fixed with 10% formaldehyde for over one week and embedded in paraffin for histological analysis.
For cytokine detection, the mice (n = 3/group) were euthanized at 12 h post-infection. Then, the expression of inflammatory cytokines (IL-1α, IL-1β, IL-6, IL-12 and TNF-α) in the lungs, liver, spleen, and PLF and the expression of chemokines (CXCL1 and CXCL2) in the PLF were determined using ELISA kits. […]

[11] = test system: PCN033; format: cell-based, Escherichia coli
[12] = MHB microdilution, 16-20 h at 37 °C, triplicate, lowest concentration inhibiting visual growth
[13] = colony counting on LB agar from wells without visible growth

Compound	MBC [1]	MIC [1]	MIC, E. coli PCN033 [2, 12]	MBC, E. coli PCN033 [2, 13]	MIC [5]	MBC, E. coli PCN033 ([2]; PCN033)	MIC, E. coli PCN033 ([2]; PCN033)	MBC, E. coli RS218 ([3]; RS218)	MIC, E. coli RS218 ([3]; RS218)	also measured
CC1(C)S[C@@H]2[C@H](NC(=O)[C@H](N)c3ccccc3)C(=O)N2[C@H]1C(=O)O [Ampicillin, ampicillin]	5 to 20 µM (≈ 1.75 to 6.99 µg/mL)	2.5 to 10 µM (≈ 0.874 to 3.49 µg/mL)	20,480 μM	40,960 μM						MIC, E. coli PCN033 ([2]; MHB microdilution, 16-20 h at 37 °C, triplicate, lowest concentration inhibiting visual growth, listed as ampicillin): greater than 160 μM; MBC, E. coli PCN033 ([2]; colony counting on LB agar from wells without visible growth, listed as ampicillin): greater than 1280 μM; MIC, E. coli RS218 [3, 12]: 5 µM (≈ 1.75 µg/mL); MBC, E. coli RS218 [3, 13]: 10 µM (≈ 3.49 µg/mL)
CO/N=C(\C(=O)N[C@@H]1C(=O)N2C(C(=O)O)=C(COC(C)=O)CS[C@H]12)c1csc(N)n1 [Cefotaxime, cefotaxime]	< 0.625 µM	< 0.625 µM			< 0.625 µM					MBC [4]: < 0.625 µM; MIC [4]: < 0.625 µM; MBC [5]: < 0.625 µM
CNC(C)C1CCC(N)C(OC2C(N)CC(N)C(OC3OCC(C)(O)C(NC)C3O)C2O)O1 (stereo not shown) [Gentamicin, gentamicin]	5 to 20 µM (≈ 2.39 to 9.55 µg/mL)	2.5 to 10 µM (≈ 1.19 to 4.78 µg/mL)	320 µM (≈ 153 µg/mL)	1280 µM (≈ 611 µg/mL)	> 160 µM					MBC [5]: > 1280 µM; MIC, E. coli RS218 [3, 12]: 2.5 µM (≈ 1.19 µg/mL); MBC, E. coli RS218 [3, 13]: 5 µM (≈ 2.39 µg/mL); bactericidal activity within 120 min, agent alone [6]: did not show obvious bactericidal activity
Cc1onc(-c2ccccc2)c1C(=O)N[C@@H]1C(=O)N2[C@@H]1SC(C)(C)[C@@H]2C(=O)O [Oxacillin, oxacillin]	1280 µM (≈ 514 µg/mL)	320 µM (≈ 128 µg/mL)	5120 µM (≈ 2060 µg/mL)	10,240 μM						MIC, E. coli PCN033 ([2]; MHB microdilution, 16-20 h at 37 °C, triplicate, lowest concentration inhibiting visual growth, listed as oxacillin): greater than 160 μM
[H]/N=C(/N)N[C@H]1[C@H](O)[C@@H](O)[C@H](O[C@@H]2O[C@@H](C)[C@](O)(C=O)[C@H]2O[C@@H]2O[C@@H](CO)[C@H](O)[C@@H](O)[C@@H]2NC)[C@@H](N/C(N)=N\[H])[C@@H]1O [Streptomycin, streptomycin]	> 41000 µM	41000 µM (≈ 23800 µg/mL)			> 160 µM					
CN(C)[C@@H]1C(O)=C(C(N)=O)C(=O)[C@@]2(O)C(O)=C3C(=O)c4c(O)cccc4[C@@](C)(O)[C@H]3C[C@@H]12 [Tetracycline, tetracycline]	5 µM (≈ 2.22 µg/mL)	2.5 µM (≈ 1.11 µg/mL)			160 µM (≈ 71.1 µg/mL)					number of monocytes and macrophages in the PLF [7]: only slightly increased; MBC [4]: 5 to 320 µM (≈ 2.22 to 142 µg/mL); MIC [4]: 2.5 to 320 µM (≈ 1.11 to 142 µg/mL); MBC [5]: 160 µM (≈ 71.1 µg/mL); decrease of MBC when used in combination [8]: 16 fold; cell morphology under SEM [9]: slight cell shrinkage; time within which all treated mice died [10]: ≤ 24 h; increase of the MIC of tetracycline, 10th generation [11]: 1.5 fold; change of the MIC of tetracycline after 30 generations ([11]; PCN033 grown at sub-MIC: tetracycline 1/4 MIC, PMAP-36 1/4 MIC, or 1/8 MIC + 1/8 MIC, normalised to first generation): threefold
GLLRKGGEKIGEKLKKIGQKIKNFFQKLVPQPEQ [CRAMP]			10 µM	20 µM						MIC, E. coli RS218 [3, 12]: 5 µM; MBC, E. coli RS218 [3, 13]: 20 µM
GRFRRLRKKTRKRLKKIGKVLKWIPPIVGSIPLGCG [PMAP-36, porcine myeloid antimicrobial peptide 36]						10 µM	2.5 µM	5 µM	2.5 µM	
PIRNWWIRIWEWLNGIRKRLRQRSPFYVRGHLNVTSTPQP [CATH-B1]						> 40 µM	> 40 µM	> 40 µM	> 40 µM	
RFGRFLRKIRRFRPKVTITIQGSARF [CATH-2]						20 µM	10 µM	10 µM	5 µM	
RRRPRPPYLPRPRPPPFFPPRLPPRIPPGFPPRFPPRFP [PR-39]						10 µM	5 µM	5 µM	2.5 µM	
RVKRFWPLVPVAINTVAAGINLYKAIRRK [CATH-3]						20 µM	10 µM	10 µM	5 µM	
